Data from PubChem BioAssay (NCI).
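Growth conditions: 96-well plates. Treatment: test compound, 48 hours, 5 concentrations. Analysis: linear interpolation between bracketing concentrations; unreached endpoints set to highest concentration. GI50 marks 50% less growth. The concentration for full growth arrest is given as TGI.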

Experiments:
Assay in all cases: NCI anticancer screen, dose series, 48 h
786-0 renal = system: 786-0 renal
A498 renal = system: A498 renal
A549 NSCLC = system: A549 NSCLC
ACHN renal = system: ACHN renal
BT-549 breast = system: BT-549 breast
CAKI-1 renal = system: CAKI-1 renal
CCRF-CEM leukemia = system: CCRF-CEM leukemia
COLO 205 colon = system: COLO 205 colon
DU-145 prostate = system: DU-145 prostate
EKVX NSCLC = system: EKVX NSCLC
HCC-2998 colon = system: HCC-2998 colon
HCT-116 colon = system: HCT-116 colon
HCT-15 colon = system: HCT-15 colon
HL-60(TB) leukemia = system: HL-60(TB) leukemia
HOP-62 NSCLC = system: HOP-62 NSCLC
HOP-92 NSCLC = system: HOP-92 NSCLC
HS 578T breast = system: HS 578T breast
HT29 colon = system: HT29 colon
K-562 leukemia = system: K-562 leukemia
KM12 colon = system: KM12 colon
LOX IMVI melanoma = system: LOX IMVI melanoma
M14 melanoma = system: M14 melanoma
MALME-3M melanoma = system: MALME-3M melanoma
MCF7 breast = system: MCF7 breast
MDA-MB-231 breast = system: MDA-MB-231 breast
MDA-MB-435 = system: MDA-MB-435
MOLT-4 leukemia = system: MOLT-4 leukemia
NCI-H226 lung = system: NCI-H226 lung
NCI-H23 lung = system: NCI-H23 lung
NCI-H460 lung = system: NCI-H460 lung
NCI-H522 lung = system: NCI-H522 lung
NCI/ADR-RES ovarian = system: NCI/ADR-RES ovarian
OVCAR-3 ovarian = system: OVCAR-3 ovarian
OVCAR-4 ovarian = system: OVCAR-4 ovarian
OVCAR-5 ovarian = system: OVCAR-5 ovarian
OVCAR-8 ovarian = system: OVCAR-8 ovarian
PC-3 prostate = system: PC-3 prostate
RPMI-8226 leukemia = system: RPMI-8226 leukemia
RXF 393 renal = system: RXF 393 renal
SF-268 CNS = system: SF-268 CNS
SF-295 CNS = system: SF-295 CNS
SF-539 CNS = system: SF-539 CNS
SK-MEL-2 melanoma = system: SK-MEL-2 melanoma
SK-MEL-28 melanoma = system: SK-MEL-28 melanoma
SK-MEL-5 melanoma = system: SK-MEL-5 melanoma
SK-OV-3 ovarian = system: SK-OV-3 ovarian
SN12C renal = system: SN12C renal
SNB-19 CNS = system: SNB-19 CNS
SNB-75 CNS = system: SNB-75 CNS
SR leukemia = system: SR leukemia
SW-620 colon = system: SW-620 colon
T-47D breast = system: T-47D breast
TK-10 renal = system: TK-10 renal
U251 CNS = system: U251 CNS
UACC-257 melanoma = system: UACC-257 melanoma
UACC-62 melanoma = system: UACC-62 melanoma
UO-31 renal = system: UO-31 renal

COc1cc(S(=O)(=O)Nc2nc(-c3ccc(N4C(=O)C(C)SC4c4ccccc4O)cc3)cs2)ccc1Cl (centres undefined)
GI50 (786-0 renal): 64.9 µM
TGI (786-0 renal): > 100 µM
GI50 (A498 renal): 51.3 µM
TGI (A498 renal): > 100 µM
GI50 (A549 NSCLC): 39.7 µM
TGI (A549 NSCLC): > 100 µM
GI50 (ACHN renal): 42.7 µM
TGI (ACHN renal): > 100 µM
GI50 (BT-549 breast): 32 µM
TGI (BT-549 breast): > 100 µM
GI50 (CAKI-1 renal): 67.7 µM
TGI (CAKI-1 renal): > 100 µM
GI50 (CCRF-CEM leukemia): 5.55 µM
TGI (CCRF-CEM leukemia): > 100 µM
GI50 (COLO 205 colon): 40.6 µM
TGI (COLO 205 colon): > 100 µM
GI50 (DU-145 prostate): 42.5 µM
TGI (DU-145 prostate): > 100 µM
GI50 (EKVX NSCLC): 42.8 µM
TGI (EKVX NSCLC): > 100 µM
GI50 (HCC-2998 colon): 50.3 µM
TGI (HCC-2998 colon): > 100 µM
GI50 (HCT-116 colon): 28.6 µM
TGI (HCT-116 colon): > 100 µM
GI50 (HCT-15 colon): 37.3 µM
TGI (HCT-15 colon): > 100 µM
GI50 (HL-60(TB) leukemia): 38 µM
TGI (HL-60(TB) leukemia): > 100 µM
GI50 (HOP-62 NSCLC): 59.4 µM
TGI (HOP-62 NSCLC): > 100 µM
GI50 (HOP-92 NSCLC): 28 µM
TGI (HOP-92 NSCLC): > 100 µM
GI50 (HS 578T breast): 43.1 µM
TGI (HS 578T breast): > 100 µM
GI50 (HT29 colon): 56.5 µM
TGI (HT29 colon): > 100 µM
GI50 (K-562 leukemia): 33.4 µM
TGI (K-562 leukemia): > 100 µM
GI50 (KM12 colon): 51.1 µM
TGI (KM12 colon): > 100 µM
GI50 (LOX IMVI melanoma): 52.1 µM
TGI (LOX IMVI melanoma): > 100 µM
GI50 (M14 melanoma): 38.6 µM
TGI (M14 melanoma): > 100 µM
GI50 (MALME-3M melanoma): 89.2 µM
TGI (MALME-3M melanoma): > 100 µM
GI50 (MCF7 breast): 49 µM
TGI (MCF7 breast): > 100 µM
GI50 (MDA-MB-231 breast): 32.6 µM
TGI (MDA-MB-231 breast): > 100 µM
GI50 (MDA-MB-435): 43.6 µM
TGI (MDA-MB-435): > 100 µM
GI50 (MOLT-4 leukemia): 34.4 µM
TGI (MOLT-4 leukemia): > 100 µM
GI50 (NCI-H226 lung): 20.3 µM
TGI (NCI-H226 lung): > 100 µM
GI50 (NCI-H23 lung): 42.2 µM
TGI (NCI-H23 lung): > 100 µM
GI50 (NCI-H460 lung): 42.5 µM
TGI (NCI-H460 lung): > 100 µM
GI50 (NCI-H522 lung): 53.7 µM
TGI (NCI-H522 lung): > 100 µM
GI50 (NCI/ADR-RES ovarian): 50.9 µM
TGI (NCI/ADR-RES ovarian): > 100 µM
GI50 (OVCAR-3 ovarian): 35.6 µM
TGI (OVCAR-3 ovarian): > 100 µM
GI50 (OVCAR-4 ovarian): 26.4 µM
TGI (OVCAR-4 ovarian): > 100 µM
GI50 (OVCAR-5 ovarian): 49.5 µM
TGI (OVCAR-5 ovarian): > 100 µM
GI50 (OVCAR-8 ovarian): 42.2 µM
TGI (OVCAR-8 ovarian): > 100 µM
GI50 (PC-3 prostate): 30.1 µM
TGI (PC-3 prostate): > 100 µM
GI50 (RPMI-8226 leukemia): 17.4 µM
TGI (RPMI-8226 leukemia): > 100 µM
GI50 (RXF 393 renal): > 100 µM
TGI (RXF 393 renal): > 100 µM
GI50 (SF-268 CNS): 41.4 µM
TGI (SF-268 CNS): > 100 µM
GI50 (SF-295 CNS): 31.8 µM
TGI (SF-295 CNS): > 100 µM
GI50 (SF-539 CNS): 32.6 µM
TGI (SF-539 CNS): > 100 µM
GI50 (SK-MEL-2 melanoma): 38.7 µM
TGI (SK-MEL-2 melanoma): > 100 µM
GI50 (SK-MEL-28 melanoma): 39.5 µM
TGI (SK-MEL-28 melanoma): > 100 µM
GI50 (SK-MEL-5 melanoma): 26 µM
TGI (SK-MEL-5 melanoma): > 100 µM
GI50 (SK-OV-3 ovarian): 50.6 µM
TGI (SK-OV-3 ovarian): > 100 µM
GI50 (SN12C renal): 47.4 µM
TGI (SN12C renal): > 100 µM
GI50 (SNB-19 CNS): 43.3 µM
TGI (SNB-19 CNS): > 100 µM
GI50 (SNB-75 CNS): 42.4 µM
TGI (SNB-75 CNS): > 100 µM
GI50 (SR leukemia): 43.3 µM
TGI (SR leukemia): > 100 µM
GI50 (SW-620 colon): 62 µM
TGI (SW-620 colon): > 100 µM
GI50 (T-47D breast): 28.8 µM
TGI (T-47D breast): > 100 µM
GI50 (TK-10 renal): 97.6 µM
TGI (TK-10 renal): > 100 µM
GI50 (U251 CNS): 32.8 µM
TGI (U251 CNS): > 100 µM
GI50 (UACC-257 melanoma): 32.8 µM
TGI (UACC-257 melanoma): > 100 µM
GI50 (UACC-62 melanoma): 39.9 µM
TGI (UACC-62 melanoma): > 100 µM
GI50 (UO-31 renal): 37.2 µM
TGI (UO-31 renal): > 100 µM
